This assay addresses T1, menin-MLL interaction (Homo sapiens, UniProt O00255).
T1 sequence (O00255 1-610): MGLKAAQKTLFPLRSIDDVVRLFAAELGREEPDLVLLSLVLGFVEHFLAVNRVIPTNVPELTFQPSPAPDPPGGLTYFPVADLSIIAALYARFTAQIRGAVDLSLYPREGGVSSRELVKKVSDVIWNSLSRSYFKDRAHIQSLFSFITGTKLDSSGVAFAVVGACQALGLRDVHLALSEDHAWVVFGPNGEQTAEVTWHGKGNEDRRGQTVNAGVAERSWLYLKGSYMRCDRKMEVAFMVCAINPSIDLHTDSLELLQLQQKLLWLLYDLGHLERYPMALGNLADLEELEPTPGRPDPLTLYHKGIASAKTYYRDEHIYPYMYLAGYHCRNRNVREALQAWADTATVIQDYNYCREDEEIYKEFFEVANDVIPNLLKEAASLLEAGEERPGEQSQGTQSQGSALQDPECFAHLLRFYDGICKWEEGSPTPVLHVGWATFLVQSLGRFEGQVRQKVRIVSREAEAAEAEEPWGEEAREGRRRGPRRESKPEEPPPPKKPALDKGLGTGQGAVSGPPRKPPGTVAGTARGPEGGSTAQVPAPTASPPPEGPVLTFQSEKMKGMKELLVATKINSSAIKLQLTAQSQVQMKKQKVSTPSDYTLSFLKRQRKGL
Briefly: biochemical.
Excerpt: Compounds that inhibit the interaction decrease the fluorescence anisotropy which is being used as a read-out for compound screening and for IC50 determination.
For orientation: IC50 means the concentration needed to halve the response being measured. Regarding `N#Cc1cc2cc(CN3CCC(Nc4ncnc5sc(CC(F)(F)F)cc45)CC3)ccc2n1Cc1cscn1` [Compound 200], the IC50 was under 100 nM.
Under `Cc1nc(Cn2c(C#N)cc3cc(CN4CCC(Nc5ncnc6sc(CC(F)(F)F)cc56)CC4)ccc32)cs1` [Compound 201] stands under 100 nM; under `N#Cc1cc2cc(CN3CCC(Nc4ncnc5sc(CC(F)(F)F)cc45)CC3)ccc2n1Cc1cn[nH]c1` [Compound 202], under 100 nM.
On to `Cn1ccnc1Cn1c(C#N)cc2cc(CN3CCC(Nc4ncnc5sc(CC(F)(F)F)cc45)CC3)ccc21` [Compound 203], for which the 50% inhibitory concentration (IC50) is under 100 nM.
Under `N#Cc1cc2cc(CN3CCC(Nc4ncnc5sc(CC(F)(F)F)cc45)CC3)ccc2n1Cc1nc[nH]n1` [Compound 204] stands under 100 nM; under `N#Cc1cc2c(F)c(CN3CCC(Nc4ncnc5sc(CC(F)(F)F)cc45)CC3)ccc2n1CC(N)=O` [Compound 205], under 100 nM.
Take `N#Cc1ccc2c(CN3CCC(Nc4ncnc5sc(CC(F)(F)F)cc45)CC3)c[nH]c2c1` [Compound 206]: the IC50 was under 100 nM.
Under `N#Cc1cc2cc(CN3CCC(Nc4ncnc5sc(CC(F)(F)F)cc45)CC3)ccc2n1CCn1ccnn1` [Compound 207] stands under 100 nM.
Under `CC(=O)NCCn1c(C#N)cc2cc(CN3CCC(Nc4ncnc5sc(CC(F)(F)F)cc45)CC3)ccc21` [Compound 208] stands under 100 nM; under `N#Cc1cc2cc(CN3CCC(Nc4ncnc5sc(CC(F)(F)F)cc45)CC3)ccc2n1CCn1cncn1` [Compound 209], under 100 nM.
Under `N#Cc1cc2cc(CN3CCC(Nc4ncnc5sc(CC(F)(F)F)cc45)CC3)ccc2n1CS(N)(=O)=O` [Compound 210] stands under 100 nM; under `N#Cc1cc2cc(C(CO)N3CCC(Nc4ncnc5sc(CC(F)(F)F)cc45)CC3)ccc2[nH]1` (stereo not drawn) [Compound 211], under 100 nM.
`CNC(=O)Cn1c(C#N)cc2cc(CN3CCC(Nc4ncnc5sc(CC(F)(F)F)cc45)CC3)ccc21` [Compound 212] gave an IC50 of under 100 nM.
Regarding `N#Cc1c(F)c2cc(CN3CCC(Nc4ncnc5sc(CC(F)(F)F)cc45)CC3)ccc2n1CC(N)=O` [Compound 213], the IC50 was under 100 nM.
Under `N#Cc1cc2cc(CN3CCC(Nc4ncnc5sc(CC(F)(F)F)cc45)CC3)c(F)cc2n1CC(N)=O` [Compound 214] stands under 100 nM.
Turning to `CCOc1cc2[nH]c(C#N)cc2cc1CN1CCC(Nc2ncnc3sc(CC(F)(F)F)cc23)CC1` [Compound 215], the IC50 is under 100 nM.
Under `CCOc1cc2c(cc1CN1CCC(Nc3ncnc4sc(CC(F)(F)F)cc34)CC1)cc(C#N)n2CC(N)=O` [Compound 216] stands under 100 nM.
Under `CCOc1cc2c(cc1CN1CCC(Nc3ncnc4sc(CC(F)(F)F)cc34)CC1)cc(C#N)n2C[C@H](O)CO` [Compound 217] stands under 100 nM; under `Cc1ccc2[nH]c(C#N)cc2c1CN1CCC(Nc2ncnc3sc(CC(F)(F)F)cc23)CC1` [Compound 218], under 100 nM; under `N#Cc1cc2cc(CN3CCC(Nc4ncnc5sc(CC(F)(F)F)cc45)CC3)ccc2n1C(F)C(N)=O` (stereo not drawn) [Compound 220], under 100 nM.
Under `CC(O)(CO)Cn1c(C#N)cc2cc(CN3CCC(Nc4ncnc5sc(CC(F)(F)F)cc45)CC3)ccc21` (stereo not drawn) [Compound 221] stands under 100 nM; under `N#Cc1cc2cc(CN3CCC(Nc4ncnc5sc(CC(F)(F)F)cc45)CC3)ccc2n1CC(CO)OC1CC1` (stereo not drawn) [Compound 222], under 100 nM.
In the case of `N#Cc1cc2cc(CN3CCC(Nc4ncnc5sc(CC(F)(F)F)cc45)CC3)ccc2n1CCCC(F)(F)F` [Compound 223], the IC50 was under 100 nM.
Under `N#Cc1cc2c(Cl)c(CN3CCC(Nc4ncnc5sc(CC(F)(F)F)cc45)CC3)ccc2[nH]1` [Compound 224] stands under 100 nM; under `N#Cc1cc2c(Cl)c(CN3CCC(Nc4ncnc5sc(CC(F)(F)F)cc45)CC3)ccc2n1CC(N)=O` [Compound 225], under 100 nM.
Under `N#Cc1cc2c(Cl)c(CN3CCC(Nc4ncnc5sc(CC(F)(F)F)cc45)CC3)ccc2n1C[C@H](O)CO` [Compound 226] stands under 100 nM; under `FC(F)(F)Cc1cc2c(NC3CCN(Cc4ccc5cc[nH]c5c4)CC3)ncnc2s1` [Compound 227], 100 to 500 nM; under `N#Cc1c[nH]c2cc(CN3CCC(Nc4ncnc5sc(CC(F)(F)F)cc45)CC3)ccc12` [Compound 228], 100 to 500 nM.
Compound `N#Cc1cc2ccc(CN3CCC(Nc4ncnc5sc(CC(F)(F)F)cc45)CC3)cc2[nH]1` [Compound 229] displayed an IC50 of 100 to 500 nM.
Under `N#Cc1cc2cc(CN3CCC(Nc4ncnc5sc(CC(F)(F)F)cc45)CC3)ccc2n1N` [Compound 230] stands 100 to 500 nM.
For `CNn1c(C#N)cc2cc(CN3CCC(Nc4ncnc5sc(CC(F)(F)F)cc45)CC3)ccc21` [Compound 231] the value was 100 to 500 nM; for `NC(=O)c1cc2cc(CN3CCC(Nc4ncnc5sc(CC(F)(F)F)cc45)CC3)ccc2[nH]1` [Compound 232], 100 to 500 nM.
Take `N#Cc1[nH]c2ccc(CN3CCC(Nc4ncnc5sc(CC(F)(F)F)cc45)CC3)cc2c1N` [Compound 233]: the 50% inhibitory concentration (IC50) was in the range of 100 to 500 nM.
`N#Cc1cc2cc(CN3CCC(Nc4ncnc5sc(CC(F)(F)F)cc45)CC3)c(F)cc2[nH]1` [Compound 234] had an IC50 of 100 to 500 nM.
For `N#Cc1cc2c(O)c(CN3CCC(Nc4ncnc5sc(CC(F)(F)F)cc45)CC3)ccc2[nH]1` [Compound 235] the value was 100 to 500 nM; for `CS(=O)(=O)c1cc2cc(CN3CCC(Nc4ncnc5sc(CC(F)(F)F)cc45)CC3)ccc2[nH]1` [Compound 236], 100 to 500 nM.
For `COCC(O)Cn1c(C#N)cc2cc(CN3CCC(Nc4ncnc5sc(CC(F)(F)F)cc45)CC3)ccc21` (stereo not drawn) [Compound 237] the value was 100 to 500 nM; for `N#Cc1cc2cc(CN3CCC(N(CCN4CCOCC4)c4ncnc5sc(CC(F)(F)F)cc45)CC3)ccc2[nH]1` [Compound 238], 100 to 500 nM.
For `CNC(=O)CCn1c(C#N)cc2cc(CN3CCC(Nc4ncnc5sc(CC(F)(F)F)cc45)CC3)ccc21` [Compound 239] the value was 100 to 500 nM; for `N#Cc1cc2cc(CN3CCC(Nc4ncnc5sc(CC(F)(F)F)cc45)CC3)ccc2n1Cc1nn[nH]n1` [Compound 240], 100 to 500 nM; for `Cc1noc(C)c1Cn1c(C#N)cc2cc(CN3CCC(Nc4ncnc5sc(CC(F)(F)F)cc45)CC3)ccc21` [Compound 241], 100 to 500 nM.
Compound `OCc1cccc2c(CN3CCC(Nc4ncnc5sc(CC(F)(F)F)cc45)CC3)c[nH]c12` [Compound 242] registered an IC50 of 100 to 500 nM.
In turn, `FC(F)(F)Cc1cc2c(NC3CCN(Cc4c[nH]c5ccccc45)CC3)ncnc2s1` [Compound 243] gave an IC50 of 100 to 500 nM.
As to `CCOc1c(CN2CCC(Nc3ncnc4sc(CC(F)(F)F)cc34)CC2)ccc2[nH]c(C#N)cc12` [Compound 244], the half-maximal inhibitory concentration (IC50) was 100 to 500 nM.
Under `N#Cc1cc2cc(CN3CCC(Nc4ncnc5sc(CC(F)(F)F)cc45)CC3)cc(F)c2[nH]1` [Compound 245] stands 100 to 500 nM; under `N#Cc1cc2cc(CN3CCC(Nc4ncnc5sc(CC(F)(F)F)cc45)CC3)cc(F)c2n1CC(N)=O` [Compound 246], 100 to 500 nM; under `CC(C(N)=O)n1c(C#N)cc2cc(CN3CCC(Nc4ncnc5sc(CC(F)(F)F)cc45)CC3)ccc21` (stereo not drawn) [Compound 247], 100 to 500 nM.
For `N#Cc1nc2ccc(CN3CCC(Nc4ncnc5sc(CC(F)(F)F)cc45)CC3)cc2o1` [Compound 248] the value was 500 to 2000 nM.

(Values after patent US9505781B2, “Compositions comprising thienopyrimidine and thienopyridine compounds and methods of use thereof” (The Regents of the University of Michigan, priority 2013, dated 2016).)
